Data published in US5656726A, “Peptide inhibitors of urokinase receptor activity” (Chiron Corporation, priority 1995, dated 1997).
Like-named read-outs stand apart in the source and are kept apart here. Ends that are not written are not given here. Peptide text beside a SMILES is read from it.

Assays:
[1] = molecular target: T1, recombinant human urokinase receptor (truncated, soluble; suPAR) (Homo sapiens, UniProt Q03405); assay: 125I-ATF competition binding on immobilized soluble recombinant human urokinase receptor; conditions: synthesized peptide, read-out: Affinity
T1 construct: expressed as a truncated, soluble molecule as described previously for mouse L-cells (Masucci et al., J Biol Chem (1991) 266:8655); made in house
T1 sequence (Q03405 23-299 limits assumed): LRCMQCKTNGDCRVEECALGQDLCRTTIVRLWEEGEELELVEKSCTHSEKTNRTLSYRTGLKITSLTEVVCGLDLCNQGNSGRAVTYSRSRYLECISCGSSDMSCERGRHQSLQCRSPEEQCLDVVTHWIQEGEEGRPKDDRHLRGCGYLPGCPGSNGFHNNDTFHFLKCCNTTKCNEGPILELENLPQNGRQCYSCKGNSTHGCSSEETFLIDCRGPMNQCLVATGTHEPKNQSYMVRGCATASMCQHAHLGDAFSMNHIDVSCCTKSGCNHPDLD

[2] = molecular target: T2, full length huPAR ("fluPAR") (Homo sapiens, UniProt Q03405); assay: Recovery of phage on Sf9 cells expressing full length huPAR; assay type: binding
T2 construct: Sf9 cells expressing full length huPAR ("fluPAR", day 2 post infection); expressed in transfected cells; host or cells: Sf9 insect cells, infected (day 2 post infection)
T2 sequence (Q03405 23-335): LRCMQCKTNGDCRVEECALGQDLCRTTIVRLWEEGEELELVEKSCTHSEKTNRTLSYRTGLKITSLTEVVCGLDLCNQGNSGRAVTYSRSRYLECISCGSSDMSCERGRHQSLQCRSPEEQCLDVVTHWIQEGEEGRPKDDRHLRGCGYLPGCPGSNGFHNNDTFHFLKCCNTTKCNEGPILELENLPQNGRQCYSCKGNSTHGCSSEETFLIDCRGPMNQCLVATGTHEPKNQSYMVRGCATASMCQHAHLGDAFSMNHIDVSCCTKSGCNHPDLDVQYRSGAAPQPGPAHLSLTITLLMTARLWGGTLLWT
Method: 1.) 15 mer phage (2.5×10^10) prepared as described above were selected by coincubation with 10^6 Sf9 cells expressing full length huPAR ("fluPAR", day 2 post infection) at room temperature for 60 minutes in Grace's medium with 2% nonfat milk. Binding phage were eluted with 6M urea (pH 2.2), the pH neutralized by adding 2M Tris-HCl, and assayed. The yield of binding phage was 0.0013% (3.3×10^5 pfu). The phage were amplified on solid agar plates as plaques, eluted with Tris-buffered saline, and precipitated with polyethylene glycol.
(§1) 3.) The phage selected in round 2 were reselected on SI9 cells expressing fluPAR (day 2 post-infection) as described for round 1 (2.8×10^10 phage on 10^6 St9 cells). The yield of binding phage from this round was 5.40% (1.5×10^9 pfu), indicating a substantial enrichment in binding phage. Sample phage from the urea eluate were cloned, and their DNAs isolated and sequenced. Binding was assayed against Sf9 cells expressing fluPAR, and Sf9 cells expressing substance P receptor ("SPR," as a control).

[3] = molecular target: T3, substance P receptor ("SPR") (Homo sapiens, UniProt P25103); assay: Recovery of phage on Sf9 cells expressing substance P receptor (control); assay type: binding; conditions: phage displaying the peptide
T3 construct: expressed in transfected cells; host or cells: Sf9 insect cells
T3 sequence (P25103 whole entry, species assumed): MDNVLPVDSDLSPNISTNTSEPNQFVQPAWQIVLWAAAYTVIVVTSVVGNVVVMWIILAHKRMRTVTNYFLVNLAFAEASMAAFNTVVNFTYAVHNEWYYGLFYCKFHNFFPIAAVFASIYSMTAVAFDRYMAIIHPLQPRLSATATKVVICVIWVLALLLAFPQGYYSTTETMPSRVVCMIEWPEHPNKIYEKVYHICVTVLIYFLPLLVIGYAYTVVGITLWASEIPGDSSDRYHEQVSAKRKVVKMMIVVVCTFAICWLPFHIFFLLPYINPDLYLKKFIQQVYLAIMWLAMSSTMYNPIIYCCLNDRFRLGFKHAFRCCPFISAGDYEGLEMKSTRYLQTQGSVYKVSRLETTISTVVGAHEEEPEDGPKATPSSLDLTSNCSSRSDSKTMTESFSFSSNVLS
Method: as §1

[4] = tested on: SaOS-2 osteosarcoma cell line; conditions: Rabbani et al.; cited from earlier work
[5] = tested on: U937 cells; conditions: Rabbani et al.; cited from earlier work
[6] = molecular target: uPAR (Homo sapiens, UniProt Q03405); conditions: Appella et al., cited from earlier work
Sequence of uPAR (Q03405 23-335): as the sequence (Q03405 23-335) above

[7] = corrected to 100 pM ATF, 0.3 μg/mL suPAR conditions, corrections about 3 × from previous assay conditions

CC(C)C[C@H](NC(=O)[C@H](CCCCN)NC(=O)[C@H](CO)NC(=O)[C@H](Cc1ccc(O)cc1)NC(=O)[C@H](CCC(N)=O)NC(=O)[C@@H](NC(=O)[C@H](CO)NC(=O)[C@H](CCC(=O)O)NC(=O)[C@H](C)N)C(C)C)C(=O)N[C@@H](Cc1c[nH]c2ccccc12)C(=O)N[C@@H](CCCCN)C(=O)N1CCC[C@H]1C(=O)N[C@@H](CC(N)=O)C(=O)N[C@H](C(=O)N[C@H](C(=O)N[C@@H](CC(C)C)C(=O)N[C@@H](C)C(N)=O)[C@@H](C)O)[C@@H](C)O (H-AESVQYSKLWKPNTTLA-NH2)
Kd [1, 7]: > 50 µM

CC[C@H](C)[C@H](NC(=O)[C@H](Cc1c[nH]cn1)NC(=O)[C@H](CCCCN)NC(=O)[C@H](CC(=O)O)NC(=O)[C@H](Cc1c[nH]cn1)NC(=O)[C@H](Cc1c[nH]c2ccccc12)NC(=O)[C@H](CC(C)C)NC(=O)[C@H](CC(=O)O)NC(=O)[C@H](CCSC)NC(=O)[C@H](Cc1ccccc1)NC(=O)[C@H](CC(C)C)NC(=O)[C@@H](NC(=O)[C@H](CCC(=O)O)NC(=O)[C@H](C)N)[C@@H](C)O)C(=O)N[C@@H](CC(C)C)C(=O)N[C@@H](CC(C)C)C(=O)N[C@H](C(N)=O)[C@@H](C)O (H-AETLFMDLWHDKHILLT-NH2)
Kd ([1]; assay performed at 100 pM ATF, 0.3 μg/mL suPAR in 200 μL (starred values)): 7 µM

CC[C@H](C)[C@H](NC(=O)[C@H](Cc1c[nH]c2ccccc12)NC(=O)[C@H](CCC(=O)O)NC(=O)[C@H](C)N)C(=O)N[C@H](C(=O)N[C@@H](CO)C(=O)N[C@@H](CO)C(=O)N1CCC[C@H]1C(=O)N1CCC[C@H]1C(=O)N[C@@H](CC(C)C)C(=O)N[C@H](C(=O)N[C@@H](CCC(N)=O)C(=O)N[C@@H](Cc1ccc(O)cc1)C(=O)N[C@@H](CC(C)C)C(=O)N[C@@H](Cc1c[nH]c2ccccc12)C(=O)NCC(=O)N[C@@H](Cc1ccccc1)C(N)=O)[C@@H](C)O)[C@@H](C)O (H-AEWITSSPPLTQYLWGF-NH2)
Kd [1, 7]: 10 µM

CC[C@H](C)[C@H](NC(=O)[C@@H](NC(=O)[C@H](CCC(N)=O)NC(=O)[C@@H]1CCCN1C(=O)[C@H](CCC(=O)O)NC(=O)[C@@H]1CCCN1C(=O)[C@H](CC(C)C)NC(=O)[C@H](Cc1c[nH]cn1)NC(=O)[C@H](CC(C)C)NC(=O)[C@H](CC(N)=O)NC(=O)[C@H](Cc1ccc(O)cc1)NC(=O)[C@H](Cc1ccccc1)NC(=O)[C@H](CO)NC(=O)[C@H](Cc1c[nH]c2ccccc12)NC(=O)[C@H](CCC(=O)O)NC(=O)[C@H](C)N)[C@@H](C)O)C(=O)N[C@@H](Cc1ccccc1)C(N)=O (H-AEWSFYNLHLPEPQTIF-NH2)
Kd [1, 7]: 5 µM

AECLNGGTAVSNKYFSNIHWCN [Positive control, residues 13-32 of the EGFlike domain of urokinase (not selected from library)]
% Recovery huPAR ([2]; phage displaying the peptide, Sf9 cells expressing fluPAR): 6.8% | Specificity (uPAR/SPR) ([2]; ratio of % recovery huPAR to SPR): 857 | % Recovery SPR [3]: 0.008%

fucosylated EGF-like domain: fucosylated EGF-like domain (uPA4-43, produced by cleavage from pro-uPA) (LHQVPSNCDCLNGGT(fucose)CVSNKYFSNIHWCNCPKKFGGQHCE; not fully specified; cysteine pairing not given here; UniProt P00749 24-63, looked up, fragment)
mitogenic activity [4]: mitogenic | mitogenic activity [5]: Neither fucosylated nor non-fucosylated EGF-like domain was mitogenic

uPA12-32: critical domain alone, residues 12-32 of the EGF-like domain of uPA (DCLNGGTCVSNKYFSNIHWCN; UniProt P00749 32-52, looked up, fragment)
Kd ([6]; J. Biol Chem (1987), read-out: affinity for uPAR): 40 nM | affinity relative to intact ATF (fold less) [6]: about 100 fold
